Assay results reported in PubChem BioAssay (NCI).
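GI50: concentration for 50% inhibition of growth. At the TGI there is no net growth.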

Tests used:
Test in all cases: DTP human tumour cell line panel, 384-well format
786-0 renal = test system: 786-0 renal
A498 renal = test system: A498 renal
A549 NSCLC = test system: A549 NSCLC
ACHN renal = test system: ACHN renal
BT-549 breast = test system: BT-549 breast
CAKI-1 renal = test system: CAKI-1 renal
CCRF-CEM leukemia = test system: CCRF-CEM leukemia
DU-145 prostate = test system: DU-145 prostate
EKVX NSCLC = test system: EKVX NSCLC
HCC-2998 colon = test system: HCC-2998 colon
HCT-116 colon = test system: HCT-116 colon
HCT-15 colon = test system: HCT-15 colon
HL-60(TB) leukemia = test system: HL-60(TB) leukemia
HOP-62 NSCLC = test system: HOP-62 NSCLC
HOP-92 NSCLC = test system: HOP-92 NSCLC
HS 578T breast = test system: HS 578T breast
HT29 colon = test system: HT29 colon
IGROV1 ovarian = test system: IGROV1 ovarian
K-562 leukemia = test system: K-562 leukemia
KM12 colon = test system: KM12 colon
LOX IMVI melanoma = test system: LOX IMVI melanoma
M14 melanoma = test system: M14 melanoma
MALME-3M melanoma = test system: MALME-3M melanoma
MCF7 breast = test system: MCF7 breast
MDA-MB-231 breast = test system: MDA-MB-231 breast
MDA-MB-435 melanoma = test system: MDA-MB-435 melanoma
MDA-MB-468 breast = test system: MDA-MB-468 breast
MOLT-4 leukemia = test system: MOLT-4 leukemia
NCI-H226 lung = test system: NCI-H226 lung
NCI-H23 lung = test system: NCI-H23 lung
NCI-H322M lung = test system: NCI-H322M lung
NCI-H460 NSCLC = test system: NCI-H460 NSCLC
NCI-H522 lung = test system: NCI-H522 lung
NCI/ADR-RES ovarian = test system: NCI/ADR-RES ovarian
OVCAR-3 ovarian = test system: OVCAR-3 ovarian
OVCAR-4 ovarian = test system: OVCAR-4 ovarian
OVCAR-5 ovarian = test system: OVCAR-5 ovarian
PC-3 prostate = test system: PC-3 prostate
RPMI-8226 leukemia = test system: RPMI-8226 leukemia
RXF 393 renal = test system: RXF 393 renal
SF-268 CNS = test system: SF-268 CNS
SF-295 CNS = test system: SF-295 CNS
SF-539 CNS = test system: SF-539 CNS
SK-MEL-2 melanoma = test system: SK-MEL-2 melanoma
SK-MEL-28 melanoma = test system: SK-MEL-28 melanoma
SK-MEL-5 melanoma = test system: SK-MEL-5 melanoma
SK-OV-3 ovarian = test system: SK-OV-3 ovarian
SN12C renal = test system: SN12C renal
SNB-19 CNS = test system: SNB-19 CNS
SNB-75 CNS = test system: SNB-75 CNS
SR leukemia = test system: SR leukemia
SW-620 colon = test system: SW-620 colon
T-47D breast = test system: T-47D breast
TK-10 renal = test system: TK-10 renal
U251 glioblastoma = test system: U251 glioblastoma
UACC-257 melanoma = test system: UACC-257 melanoma
UACC-62 melanoma = test system: UACC-62 melanoma
UO-31 renal = test system: UO-31 renal

CC(C)C[C@H](NC(=O)CNC(=O)c1cc(Cl)ccc1Cl)B(O)O
GI50 ([…]-0 renal): 0.0377 µM | TGI (786-0 renal): 0.17 µM | GI50 (A498 renal): 0.0714 µM | TGI (A498 renal): 1.31 µM | GI50 (A549 NSCLC): 0.13 µM | TGI (A549 NSCLC): 1.68 µM | GI50 (ACHN renal): 0.0208 µM | TGI (ACHN renal): 0.0712 µM | GI50 (BT-549 breast): 0.0206 µM | TGI (BT-549 breast): 0.0363 µM | GI50 (CAKI-1 renal): 0.0312 µM | TGI (CAKI-1 renal): 0.155 µM | GI50 (CCRF-CEM leukemia): < 0.01 µM | GI50 (DU-145 prostate): 0.0467 µM | TGI (DU-145 prostate): 0.457 µM | GI50 (EKVX NSCLC): 0.083 µM | TGI (EKVX NSCLC): 0.396 µM | GI50 (HCC-2998 colon): 0.0306 µM | TGI (HCC-2998 colon): 0.13 µM | GI50 (HCT-116 colon): 0.0175 µM | TGI (HCT-116 colon): 0.034 µM | GI50 (HCT-15 colon): 0.0292 µM | TGI (HCT-15 colon): 0.115 µM | GI50 (HL-60(TB) leukemia): 0.0109 µM | TGI (HL-60(TB) leukemia): 0.023 µM | GI50 (HOP-62 NSCLC): 0.0547 µM | TGI (HOP-62 NSCLC): 0.268 µM | GI50 (HOP-92 NSCLC): 0.0275 µM | TGI (HOP-92 NSCLC): 0.0817 µM | GI50 (HS 578T breast): 0.0209 µM | TGI (HS 578T breast): 0.0394 µM | GI50 (HT29 colon): 0.0198 µM | TGI (HT29 colon): 0.0452 µM | GI50 (IGROV1 ovarian): 0.0802 µM | TGI (IGROV1 ovarian): 0.59 µM | GI50 (K-562 leukemia): 0.0338 µM | TGI (K-562 leukemia): 0.126 µM | GI50 (KM12 colon): 0.0507 µM | TGI (KM12 colon): 0.165 µM | GI50 (LOX IMVI melanoma): 0.0406 µM | TGI (LOX IMVI melanoma): 0.136 µM | GI50 (M14 melanoma): 0.0171 µM | TGI (M14 melanoma): 0.0324 µM | GI50 (MALME-3M melanoma): 0.0169 µM | TGI (MALME-3M melanoma): 0.035 µM | GI50 (MCF7 breast): 0.0347 µM | TGI (MCF7 breast): 2.66 µM | GI50 (MDA-MB-231 breast): 0.0293 µM | TGI (MDA-MB-231 breast): 0.0661 µM | GI50 (MDA-MB-435 melanoma): 0.016 µM | TGI (MDA-MB-435 melanoma): 0.0302 µM | GI50 (MDA-MB-468 breast): 0.0189 µM | TGI (MDA-MB-468 breast): 0.0387 µM | GI50 (MOLT-4 leukemia): < 0.01 µM | TGI (MOLT-4 leukemia): 0.0114 µM | GI50 (NCI-H226 lung): 0.0111 µM | TGI (NCI-H226 lung): 0.0236 µM | GI50 (NCI-H23 lung): 0.0227 µM | TGI (NCI-H23 lung): 0.0655 µM | GI50 (NCI-H322M lung): 0.572 µM | TGI (NCI-H322M lung): 6.5 µM | GI50 (NCI-H460 NSCLC): 0.0616 µM | TGI (NCI-H460 NSCLC): 0.263 µM | GI50 (NCI-H522 lung): 0.0165 µM | TGI (NCI-H522 lung): 0.0309 µM | GI50 (NCI/ADR-RES ovarian): 0.235 µM | TGI (NCI/ADR-RES ovarian): 0.781 µM | GI50 (OVCAR-3 ovarian): 0.0149 µM | TGI (OVCAR-3 ovarian): 0.0314 µM | GI50 (OVCAR-4 ovarian): 0.0821 µM | TGI (OVCAR-4 ovarian): 0.219 µM | GI50 (OVCAR-5 ovarian): 0.0666 µM | TGI (OVCAR-5 ovarian): 0.277 µM | GI50 (PC-3 prostate): 0.0908 µM | TGI (PC-3 prostate): 0.298 µM | GI50 (RPMI-8226 leukemia): < 0.01 µM | GI50 (RXF 393 renal): 0.018 µM | TGI (RXF 393 renal): 0.033 µM | GI50 (SF-268 CNS): 0.026 µM | TGI (SF-268 CNS): 0.0606 µM | GI50 (SF-295 CNS): 0.0555 µM | TGI (SF-295 CNS): 0.236 µM | GI50 (SF-539 CNS): 0.0207 µM | TGI (SF-539 CNS): 0.0352 µM | GI50 (SK-MEL-2 melanoma): 0.0336 µM | TGI (SK-MEL-2 melanoma): 0.0513 µM | GI50 (SK-MEL-28 melanoma): 0.0166 µM | TGI (SK-MEL-28 melanoma): 0.032 µM | GI50 (SK-MEL-5 melanoma): 0.0197 µM | TGI (SK-MEL-5 melanoma): 0.0417 µM | GI50 (SK-OV-3 ovarian): 0.184 µM | TGI (SK-OV-3 ovarian): 1.52 µM | GI50 (SN12C renal): 0.0622 µM | TGI (SN12C renal): 0.243 µM | GI50 (SNB-19 CNS): 0.0842 µM | TGI (SNB-19 CNS): 0.421 µM | GI50 (SNB-75 CNS): 0.111 µM | TGI (SNB-75 CNS): 0.299 µM | GI50 (SR leukemia): 0.0111 µM | TGI (SR leukemia): 0.0234 µM | GI50 (SW-620 colon): 0.0177 µM | TGI (SW-620 colon): 0.034 µM | GI50 (T-47D breast): 0.0329 µM | TGI (T-47D breast): 0.0628 µM | GI50 (TK-10 renal): 0.0208 µM | TGI (TK-10 renal): 0.054 µM | GI50 (U251 glioblastoma): 0.0676 µM | TGI (U251 glioblastoma): 1.1 µM | GI50 (UACC-257 melanoma): 0.02 µM | TGI (UACC-257 melanoma): 0.0367 µM | GI50 (UACC-62 melanoma): 0.0275 µM | TGI (UACC-62 melanoma): 0.0811 µM | GI50 (UO-31 renal): 0.0263 µM | TGI (UO-31 renal): 0.0661 µM
